Measured values reported in ChEMBL document CHEMBL5365530, “Identification of a Novel, Potent, and Orally Bioavailable Guanidine-Based SHP2 Allosteric Inhibitor from Virtual Screening and Rational Structural Optimization for the Treatment of KRAS Mutant Cancers” (J Med Chem, 2023).
Values belong to the molecule of their own block, whether it stands above or below them.

How the values were obtained:
[1] = target: T1, Tyrosine-protein phosphatase non-receptor type 11 (Homo sapiens, UniProt Q06124); experiment: Allosteric Inhibition of H2N-LN(pY)IDLDLV(dPEG8)LST(pY)ASINFQKASINFQK-amide-activated SHP2 (unknown origin) using DiFMUP as substrate pretreated with enzyme for 1 hr followed by substrate addition and measured after 20 mins by fluorescence based analysis
T1 sequence (Q06124 whole entry): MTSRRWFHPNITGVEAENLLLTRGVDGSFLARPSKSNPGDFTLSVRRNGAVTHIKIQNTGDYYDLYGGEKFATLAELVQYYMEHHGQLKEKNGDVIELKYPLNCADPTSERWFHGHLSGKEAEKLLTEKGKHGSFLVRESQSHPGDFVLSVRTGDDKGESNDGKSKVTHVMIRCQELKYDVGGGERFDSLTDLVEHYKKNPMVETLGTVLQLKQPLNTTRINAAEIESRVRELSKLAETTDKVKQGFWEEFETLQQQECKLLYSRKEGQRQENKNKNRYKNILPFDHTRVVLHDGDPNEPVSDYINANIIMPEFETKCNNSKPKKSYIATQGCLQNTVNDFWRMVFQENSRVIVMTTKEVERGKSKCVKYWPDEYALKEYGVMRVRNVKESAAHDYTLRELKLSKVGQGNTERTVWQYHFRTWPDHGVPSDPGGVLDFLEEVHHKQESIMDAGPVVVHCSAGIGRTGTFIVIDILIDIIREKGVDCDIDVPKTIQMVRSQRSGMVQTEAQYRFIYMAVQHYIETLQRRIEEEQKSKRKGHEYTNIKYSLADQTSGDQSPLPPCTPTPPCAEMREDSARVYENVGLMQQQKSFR

[2] = Half life in ICR mouse at 1 mg/kg, iv measured for 24 hrs by LC-MS/MS analysis; format: ADME, organism-based; settings: in vivo
[3] = AUC in ICR mouse at 1 mg/kg, iv measured for 24 hrs by LC-MS/MS analysis; format: ADME, organism-based; set-up: time 24 hrs, dose 1 mg/kg, route iv; settings: in vivo
MIA PaCa-2 [4] = experiment: Induction of apoptosis in human MIA PaCa-2 cells assessed as proportion of early apoptotic cells at 5 uM incubated for 72 hrs by AnnexinV-FITC/PI staining based flow cytometry (reference value: 0.26%); format: functional
[5] = Oral bioavailability in ICR mouse at 10 mg/kg measured for 24 hrs by LC-MS/MS analysis; format: ADME, organism-based; settings: in vivo
[6] = target: Tyrosine-protein phosphatase non-receptor type 6 (Homo sapiens, UniProt P29350); experiment: Inhibition of SHP1 (unknown origin) using DiFMUP as substrate pretreated with enzyme for 20 mins followed by substrate addition and measured for 2 hrs by fluorescence based analysis
Chain of Tyrosine-protein phosphatase non-receptor type 6 (P29350 whole entry): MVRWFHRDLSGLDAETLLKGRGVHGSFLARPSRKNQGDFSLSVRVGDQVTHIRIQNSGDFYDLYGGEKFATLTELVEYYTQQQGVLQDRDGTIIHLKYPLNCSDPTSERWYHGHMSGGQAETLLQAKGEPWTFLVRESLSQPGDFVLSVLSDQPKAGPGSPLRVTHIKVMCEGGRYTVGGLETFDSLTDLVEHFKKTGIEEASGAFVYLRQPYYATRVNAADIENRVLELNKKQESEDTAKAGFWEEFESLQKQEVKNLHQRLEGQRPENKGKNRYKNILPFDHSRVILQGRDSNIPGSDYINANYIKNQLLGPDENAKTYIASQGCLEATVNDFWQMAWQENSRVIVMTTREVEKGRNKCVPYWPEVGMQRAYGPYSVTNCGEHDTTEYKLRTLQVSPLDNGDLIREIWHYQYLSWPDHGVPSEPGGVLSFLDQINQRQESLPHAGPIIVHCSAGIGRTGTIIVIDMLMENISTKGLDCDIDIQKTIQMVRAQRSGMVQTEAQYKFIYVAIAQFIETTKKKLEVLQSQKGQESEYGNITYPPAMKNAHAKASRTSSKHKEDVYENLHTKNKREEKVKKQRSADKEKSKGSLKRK

MIA PaCa-2 [7] = experiment: Antiproliferative activity against human MIA PaCa-2 cells harboring KRASG12C mutant assessed as inhibition of cell growth incubated for 72 hrs by CellTiter-LumiII Luminescent assay; format: functional, cell-based; settings: MIA PaCa-2, 72 h
MIA PaCa-2 [8] = experiment: Induction of apoptosis in human MIA PaCa-2 cells assessed as proportion of viable cells at 5 uM incubated for 72 hrs by AnnexinV-FITC/PI staining based flow cytometry (reference value: 98.19%); format: functional
[9] = target: T1, Tyrosine-protein phosphatase non-receptor type 11; experiment: Inhibition of SHP2 PTP domain (unknown origin) using DiFMUP as substrate pretreated with enzyme for 20 mins followed by substrate addition and measured for 2 hrs by fluorescence based analysis
[10] = Hepatotoxicity in ICR mouse assessed as increase in plasma AST level at 100 mg/kg, po administered once every 2 days and measured on day 14; format: toxicity, organism-based; settings: in vivo, 336 h, time 14 day
MIA PaCa-2 [11] = experiment: Induction of apoptosis in human MIA PaCa-2 cells assessed as proportion of late apoptotic cells at 10 uM incubated for 72 hrs by AnnexinV-FITC/PI staining based flow cytometry (reference value: 1.36%); format: functional
KYSE-520 cell line = experiment: Antiproliferative activity against human KYSE-520 cells assessed as inhibition of cell growth incubated for 72 hrs by CellTiter-LumiII Luminescent assay; format: functional, cell-based; settings: KYSE-520, 72 h
[12] = Clearance in ICR mouse at 1 mg/kg, iv measured for 24 hrs by LC-MS/MS analysis; format: ADME, organism-based; settings: in vivo
MIA PaCa-2 [13] = experiment: Antitumor activity against human MIA PaCa-2 cells xenografted in BALB/c nude mouse assessed as inhibition of tumor growth at 40 mg/kg, po administered daily for 17 days; format: functional; settings: time 17 day
MIA PaCa-2 [14] = experiment: Induction of apoptosis in human MIA PaCa-2 cells assessed as proportion of late apoptotic cells at 5 uM incubated for 72 hrs by AnnexinV-FITC/PI staining based flow cytometry (reference value: 1.36%); format: functional
MIA PaCa-2 [15] = experiment: Induction of apoptosis in human MIA PaCa-2 cells assessed as proportion of necrotic cells at 10 uM incubated for 72 hrs by AnnexinV-FITC/PI staining based flow cytometry (reference value: 0.19%); format: functional
[16] = Tmax in ICR mouse at 10 mg/kg, po measured for 24 hrs by LC-MS/MS analysis; format: ADME, organism-based; settings: in vivo
[17] = Hepatotoxicity in ICR mouse assessed as increase in plasma ALT level at 100 mg/kg, po administered once every 2 days and measured on day 14; format: toxicity, organism-based; settings: in vivo, 336 h, time 14 day
RAW264.7 = experiment: Cytotoxicity against mouse RAW264.7 cells assessed as cell viability at 10 to 30 uM incubated for 72 hrs by CellTiter-LumiII Luminescent assay; format: toxicity, cell-based; settings: raw264.7, 72 h, dose 10-30 µM
MIA PaCa-2 [18] = experiment: Induction of apoptosis in human MIA PaCa-2 cells assessed as proportion of necrotic cells at 5 uM incubated for 72 hrs by AnnexinV-FITC/PI staining based flow cytometry (reference value: 0.19%); format: functional
[19] = Hepatotoxicity in ICR mouse assessed as increase in plasma ALP level at 100 mg/kg, po administered once every 2 days and measured on day 14; format: toxicity, organism-based; settings: in vivo, 336 h, time 14 day
[20] = Toxicity against BALB/c nude mouse xenografted with human MIA PaCa-2 cells assessed as animal's death at 20 to 40 mg/kg, po administered daily for 17 days; format: organism-based; settings: in vivo, 408 h, dose 20-40 mg/kg, time 17 day
MIA PaCa-2 [21] = experiment: Induction of apoptosis in human MIA PaCa-2 cells assessed as proportion of viable cells at 2.5 uM incubated for 72 hrs by AnnexinV-FITC/PI staining based flow cytometry (reference value: 98.19%); format: functional
MIA PaCa-2 [22] = experiment: Induction of apoptosis in human MIA PaCa-2 cells assessed as proportion of necrotic cells at 2.5 uM incubated for 72 hrs by AnnexinV-FITC/PI staining based flow cytometry (reference value: 0.19%); format: functional
MIA PaCa-2 [23] = experiment: Induction of apoptosis in human MIA PaCa-2 cells assessed as proportion of early apoptotic cells at 10 uM incubated for 72 hrs by AnnexinV-FITC/PI staining based flow cytometry (reference value: 0.26%); format: functional
[24] = Half life in ICR mouse at 10 mg/kg, po measured for 24 hrs by LC-MS/MS analysis; format: ADME, organism-based; settings: in vivo
[25] = Toxicity against BALB/c nude mouse xenografted with human MIA PaCa-2 cells assessed as effect on body weight at 20 to 40 mg/kg, po administered daily for 17 days; format: organism-based; settings: in vivo, 408 h, dose 20-40 mg/kg, time 17 day
[26] = Volume of distribution in ICR mouse at 1 mg/kg, iv measured for 24 hrs by LC-MS/MS analysis; format: ADME, organism-based; settings: in vivo
MIA PaCa-2 [27] = experiment: Induction of apoptosis in human MIA PaCa-2 cells assessed as proportion of early apoptotic cells at 2.5 uM incubated for 72 hrs by AnnexinV-FITC/PI staining based flow cytometry (reference value: 0.26%); format: functional
[28] = AUC in ICR mouse at 10 mg/kg, po measured for 24 hrs by LC-MS/MS analysis; format: ADME, organism-based; set-up: dose 10 mg/kg, time 24 hrs, route po; settings: in vivo
MIA PaCa-2 [29] = experiment: Induction of apoptosis in human MIA PaCa-2 cells assessed as proportion of late apoptotic cells at 2.5 uM incubated for 72 hrs by AnnexinV-FITC/PI staining based flow cytometry (reference value: 1.36%); format: functional
MIA PaCa-2 [30] = experiment: Induction of apoptosis in human MIA PaCa-2 cells assessed as proportion of viable cells at 10 uM incubated for 72 hrs by AnnexinV-FITC/PI staining based flow cytometry (reference value: 98.19%); format: functional
[31] = Cmax in ICR mouse at 10 mg/kg, po measured for 24 hrs by LC-MS/MS analysis; format: ADME, organism-based; set-up: time 24 hrs, dose 10 mg/kg, route po; settings: in vivo

Structure (SMILES): Nc1nc(N2CCN(S(N)(=O)=O)CC2)cnc1-c1cccc(Cl)c1Cl
IC50 [1]: 3400 nM

Structure (SMILES): N=C(N)N1CCN(c2cnc(-c3cccc(Cl)c3Cl)c(N)n2)CC1
IC50 [1]: 414 nM

Structure (SMILES): N#Cc1cc(/N=C(\N)N2CCN(c3cnc(-c4cccc(Cl)c4Cl)c(N)n3)CC2)cs1
IC50 [1]: 72.8 nM

Structure (SMILES): COc1cc(/N=C(\N)N2CCN(c3cnc(-c4cccc(Cl)c4Cl)c(N)n3)CC2)ccc1C#N
half-life [2]: 1.9 h | AUC at 24 h [3]: 0.651 µM·h | Activity (MIA PaCa-2 [4]): 7.47% | bioavailability [5]: 66.3% | IC50 [6]: > 30000 nM | IC50 (MIA PaCa-2 [7]): 6800 nM | Activity (MIA PaCa-2 [8]): 79.83% | IC50 [9]: > 30000 nM | Activity [10]: Non-Toxic | Activity (MIA PaCa-2 [11]): 23.65% | IC50 (KYSE-520 cell line): 1800 nM | clearance [12]: 52.2 mL/min/kg | inhibition (INH) (MIA PaCa-2 [13]): 48% | Activity (MIA PaCa-2 [14]): 12.55% | Activity (MIA PaCa-2 [15]): 0.22% | Tmax [16]: 0.8 h | Activity [17]: Non-Toxic | Activity (RAW264.7): Non-Toxic | Activity (MIA PaCa-2 [18]): 0.15% | Activity [19]: Non-Toxic | Activity [20]: Non-Toxic | Activity (MIA PaCa-2 [21]): 88.63% | Activity (MIA PaCa-2 [22]): 0.21% | Activity (MIA PaCa-2 [23]): 12.54% | half-life [24]: 2 h | Activity [25]: Non-Toxic | Vd [26]: 8.4 L/kg | IC50 [1]: 17.7 nM | Activity (MIA PaCa-2 [27]): 4.98% | AUC at 24 h [28]: 4.32 µM·h | Activity (MIA PaCa-2 [29]): 6.18% | Activity (MIA PaCa-2 [30]): 63.59% | Cmax [31]: 1090 nM

Structure (SMILES): CN(CCN(C)c1cnc(-c2cccc(Cl)c2Cl)c(N)n1)C(=N)N
IC50 [1]: 6250 nM

Structure (SMILES): COc1ccc(/N=C(\N)N2CCN(c3cnc(-c4cccc(Cl)c4Cl)c(N)n3)CC2)cc1
IC50 [1]: 52.7 nM

Structure (SMILES): CNC(=O)c1ccc(/N=C(\N)N2CCN(c3cnc(-c4cccc(Cl)c4Cl)c(N)n3)CC2)cc1
IC50 [1]: 3210 nM

Structure (SMILES): N/C(=N\C(=O)c1ccncc1)N1CCN(c2cnc(-c3cccc(Cl)c3Cl)c(N)n2)CC1
IC50 [1]: 4850 nM

Structure (SMILES): N=C(N)N1CCN(c2cnc(-c3cccc(Cl)c3Cl)c(N)n2)C(=O)C1
IC50 [1]: > 10000 nM

Other lines, results leading:

IC50 [1]: 396 nM
Structure (SMILES): N/C(=N\c1cnccn1)N1CCN(c2cnc(-c3cccc(Cl)c3Cl)c(N)n2)CC1

IC50 [1]: 184 nM
Structure (SMILES): N/C(=N\c1ccccn1)N1CCN(c2cnc(-c3cccc(Cl)c3Cl)c(N)n2)CC1

IC50 [1]: 142 nM
Structure (SMILES): N/C(=N\c1cccnc1)N1CCN(c2cnc(-c3cccc(Cl)c3Cl)c(N)n2)CC1

IC50 [1]: 48.1 nM
Structure (SMILES): N/C(=N\c1ccsc1)N1CCN(c2cnc(-c3cccc(Cl)c3Cl)c(N)n2)CC1

IC50 [1]: 112 nM
Structure (SMILES): COc1ccccc1/N=C(\N)N1CCN(c2cnc(-c3cccc(Cl)c3Cl)c(N)n2)CC1

IC50 [1]: 715 nM
Structure (SMILES): N/C(=N\c1ncccn1)N1CCN(c2cnc(-c3cccc(Cl)c3Cl)c(N)n2)CC1
